In patent US9333257B2, “FGFR1 antibodies and treatment of cancer” (Agency for Science, Technology and Research, priority 2011, dated 2016):

Columns and labels:
Type in all cases: cell-based, human
[1] = test system: MG63 cells; assay: Cell growth, viable cell count by GUAVA Viacount; conditions: 48 hours; for repression of cell growth: 50 μM
Procedure: The cells were seeded in triplicates at 20,000 cells/cm^2 in 24-well plates, except MDA-MB468 which was plated at 100,000 cells/cm^2. […] 48 hours after treatment, the viable cell numbers were counted using the GUAVA Viacount Program and used to plot the graph (FIG. 6). The ‘starting’ cell numbers which were seeded for the assay were also included. hFOB is the normal cell control for osteosarcoma cells, while MCF10A is the normal cell control for breast cancer cells.
We tested the effectiveness of these reagents to block the growth of MG63 using GUAVA Viacount system.
The effect of these antibodies on the growth of MG63 cells were examined by GUAVA EasyCyte flow cytometry system.
Rabbit IgG and mouse IgG were the vehicle control for IMB-R1 and IMB-R1 mAbs, respectively. The viable cells were counted by GUAVA Viacount system. The statistics was done by Student's t test.

[2] = test system: Saos-2; assay: Cell viability via GUAVA, fold change vs cells plated; conditions: two day treatment
Procedure: (§1) Old media was first removed and 3 ml of fresh media added. IMBR1 and rabbit IgG were added to achieve desired dosage. PD166866 (Sigma-Aldrich, USA) and SU5402 (Merck, Germany) were dissolved in dimethyl sulfoxide (DMSO; Sigma-Aldrich, USA) and added to master mix of media to achieve desired concentration. Additional DMSO was added such that total volume of chemicals added was constant.
(§2) Cells were grown in 24-well plate with 500 μl of media at a seeding density of 20,000 cells/cm^2, except for MDA-MB-468 which were seeded at a density of 100,000 cells/cm^2. Each well of cells were then collected via trypsinization with 200 μl of trypsin-EDTA (Invitrogen, USA) and neutralized with 200 μl of media. 1 μl of GUAVA Viacount Flex dye (Guava Technologies, USA) was added to each well. Quantification of viable cells were performed as per manufacturer's instructions.
(§3) To determine the effect of inhibiting FGFR1 signaling on cell viability in osteosarcoma cells, Saos-2 and hOS were treated with varying concentrations of FGFR tyrosine kinase inhibitors PD166866 (Panek et al., 1998) and SU5402 (Mohammadi et al, 1997). The control groups of respective cell lines were treated with equivalent volume of DMSO, as DMSO is the vehicle for both chemical inhibitors. Cell viability was measured via GUAVA and fold change calculated to compare changes in number of cells after two day treatment and number of cells plated. A fold change greater than one indicated an increase in number of cells while a fold change less than one indicated a decrease in number of cells compared to number of cells plated.
To determine the effect of IMBR1 on cell viability, GUAVA was performed after two day treatment with varying amount of IMBR1 or rabbit IgG as control. Rabbit IgG was used as control as IMBR1 is raised in rabbit. Half maximal inhibitory constant (IC50) was then determined.

[3] = test system: hOS; assay: as above; conditions: two day treatment
Procedure: as §1, §2, §3

[4] = test system: MG63 cells; assay: Annexin V-FITC / PI staining apoptosis assay
Procedure: Thus we treated MG63 with 1:250 dilution of IMB-R1 or equal volume of rabbit IgG for 24 hours and then stained the cells with Annexin V-FITC and Propidium Iodide (PI) (BD Biosciences). Annexin V binds to phosphatidylserine which is only present on the outer layer of cell membrane at the early stage of apoptosis. Therefore positive staining of Annexin V indicates early apoptosis. PI is unable to penetrate the intact cell membrane. Only when the membrane breaks down at the late stage of apoptosis, PI can enter and stain the cell. After staining, the cell population was analyzed by BD FACS Array system. The viable cells were negative of either Annexin V-FITC or PI staining, which was shown in Q3; the early apoptotic cells were positive of Annexin V-FITC but negative of PI staining, which was shown in Q4; the late apoptotic or dead cells were positive of both staining, which was shown in Q2. The percentage of positive cells in each population was plotted in the graphs.
We next examined whether FGF2 regulated cell apoptosis and IMB-R1 blocked its effect. MG63 cells were treated with IMB-R1 (1:250) 1 hour before FGF2 (20 ng/ml). 24 hours later, cells were harvested and stained with Annexin-PI. Thereafter, cells were analysed by flow cytometry (FIG. 11B). […]
Cells were treated with 25 μM U0126 for 24 hours before the apoptosis of the cells was analysed by Annexin-PI staining.

[5] = test system: MG63 cells; assay: FGF2 stimulated MG63 cell growth (GUAVA)
Procedure: MG63 cells were treated with 20 ng/ml FGF2, IMB-R1 (1:250 dilution), or pretreated with IMB-R11 hour before addition of FGF2. Cells without the above treatments were the control. After 2 days, the viable cell numbers were counted using GUAVA system as mentioned before.
Cells were first treated with increasing doses of U0126 for 48 hours. The viable cell numbers were then analysed by GUAVA system. Next, cells were treated with 20 ng/ml FGF2 in the presence or absence of the optimal dose of U0126 determined from the first assay, before the cell counting was performed.

[6] = test system: Caspase 3; assay: Caspase 3 activity assay (Biovision kit) in MG63; conditions: 24 hours
Procedure: We further examined the effect of IMB-R1 on Caspase 3 activity using an assay kit from Biovision. Caspase 3 is activated at the early stage of apoptosis, so it is used as a common marker of apoptosis. Staurosporine, known as the inducer of caspase 3 activity, was used in this assay as the positive control. We first treated MG63 cells with increasing dose of staurosporine for 24 hours to determine the working dose.
We next examined whether FGF2 regulated cell apoptosis and IMB-R1 blocked its effect. MG63 cells were treated with IMB-R1 (1:250) 1 hour before FGF2 (20 ng/ml). 24 hours later, cells were harvested and stained with Annexin-PI. Thereafter, cells were analysed by flow cytometry (FIG. 11B). The percentage of positive cells in each population was plotted in the graphs (FIG. 11C). We further examined the effect of IMB-R1 and FGF2 on Caspase 3 activity using the assay kit from Biovision. Caspase 3 is activated at the early stage of apoptosis, so it is used as a common marker of apoptosis. The dose of reagents and the time point chosen were same to those in Annexin-PI staining assay.

With `COc1cc(OC)cc(-c2cc3cnc(N)nc3nc2NC(=O)NC(C)(C)C)c1` [PD166866] the “repression of cell growth” value [1] was ~50%, the “fold change of cell number vs cells plated” value (“fold change of cell number” for short) ([2]; 10 μM) was 1.7 and the “fold change of cell number” value ([2]; 100 μM) was 0.4. For the same compound, the “fold change of cell number” value ([3]; 10 μM) was 4.2 and the “fold change of cell number” value ([3]; 100 μM) was 0.7.

In the case of `N#CC(=C(/N)Sc1ccccc1N)/C(C#N)=C(\N)Sc1ccccc1N` [U0126], the cell apoptosis ([4]; 25 μM, 24 hours (control 7.49%)) is reported as ~100%, the viability at 25 µM ([4]; Homo sapiens, MG-63, 24 h, read-out: viable cells) is reported as < 1% and the “cell number relative to cells without treatment” value ([1]; 25 μM) is reported as ~50%. For the same compound, the “FGF2 stimulated cell growth” value ([5]; 25 μM U0126, 20 ng/ml FGF2) was “completely suppressed”.

With “FGF2: recombinant human FGF2 (R&D Systems), FGF ligand that activates FGFR1 signalling” the “caspase 3 activity” value ([6]; FGF2 20 ng/ml alone) was “slightly decreased” and the “increase of cell proliferation” value ([5]; 20 ng/ml FGF2, 2 days) was 1.9 folds.

With `Cc1c[nH]c(/C=C2\C(=O)Nc3ccccc32)c1CCC(=O)O` [SU5402] the “repression of cell growth” value [1] was ~50%, the “fold change of cell number” value ([2]; 10 μM) was 2.14 and the “fold change of cell number” value ([2]; 100 μM) was 0.9. The “fold change of cell number” value ([3]; 10 μM) was 5.2 and the “fold change of cell number” value ([3]; 100 μM) was 0.6.

In the case of `CCN(CC)CCCCNc1ncc2cc(-c3cc(OC)cc(OC)c3)c(NC(=O)NC(C)(C)C)nc2n1` [PD173074], the IC50 ([1]; Homo sapiens, MG-63, read-out: concentration able to induce 50% cell growth inhibition) is reported as 10 to 25 µM.

For `CN[C@@H]1C[C@H]2O[C@@](C)([C@@H]1OC)n1c3ccccc3c3c4c(c5c6ccccc6n2c5c31)C(=O)NC4` [staurosporine], the “Caspase 3 activation” value ([6]; 15 nM) was “sufficient to activate Caspase 3”.
